Reference: ChEMBL document CHEMBL1201862, “PubChem BioAssay data set” (2004)
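Grown in 96-well plates, cells were treated for 48 hours with each compound at five concentrations. Insufficient inhibition: endpoint recorded as highest concentration tested. Here, GI50 denotes the concentration required for 50% inhibition of growth.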 Calls of active or inactive are those of the source. Rule as the data show it: active = GI50 up to about 1.1 µM and inactive = higher.

Key:
Assay in all cases: NCI-60 cell line screen, 48 h
[1] = system: A549
[2] = system: BT-549
[3] = system: CAKI-1
[4] = system: DU-145
[5] = system: HCT-15
[6] = system: HOP-62
[7] = system: K562
[8] = system: MDA-MB-231
[9] = system: MDA-MB-435
[10] = system: NCI-H460
[11] = system: NCI-H522
[12] = system: NCI/ADR-RES
[13] = system: SF-268
[14] = system: SF-295
[15] = system: SK-MEL-28
[16] = system: SN12C
[17] = system: SNB-19
[18] = system: SW-620
[19] = system: HCC 2998
[20] = system: SR

| SMILES | GI50 [1] | GI50 [2] | GI50 [3] | GI50 [4] | GI50 [5] [µM] | GI50 [6] | GI50 [7] | GI50 [8] | GI50 [9] | GI50 [10] | GI50 [11] | GI50 [12] | GI50 [13] | GI50 [14] | GI50 [15] | GI50 [16] | GI50 [17] | GI50 [18] | GI50 [19] | GI50 [20] |
| --- | --- | --- | --- | --- | --- | --- | --- | --- | --- | --- | --- | --- | --- | --- | --- | --- | --- | --- | --- | --- |
| O=C1NC(=O)C2(CCCCCC2)N1 | > 100 µM (inactive) | > 100 µM (inactive) | > 100 µM (inactive) | > 100 µM (inactive) | > 100 | > 100 µM (inactive) | > 100 µM (inactive) | > 100 µM (inactive) | > 100 µM (inactive) | > 100 µM (inactive) | > 100 µM (inactive) | > 100 µM (inactive) | > 100 µM (inactive) | > 100 µM (inactive) | > 100 µM (inactive) | > 100 µM (inactive) | > 100 µM (inactive) | > 100 µM (inactive) |  |  |
| O=c1nc2n3c4c(cccc4nc-2c(=O)[nH]1)CCC3 | > 100 µM (inactive) | > 100 µM (inactive) | > 100 µM (inactive) | > 100 µM (inactive) | > 100 | > 100 µM (inactive) | > 100 µM (inactive) | > 100 µM (inactive) | 61.9 µM (inactive) | > 100 µM (inactive) | 27.2 µM (inactive) | > 100 µM (inactive) | > 100 µM (inactive) | > 100 µM (inactive) | > 100 µM (inactive) | > 100 µM (inactive) | > 100 µM (inactive) | > 100 µM (inactive) | > 100 µM (inactive) |  |
| CN(C)/N=C/c1cn(C)c(=O)n(C)c1=O | > 100 µM (inactive) | > 100 µM (inactive) | > 100 µM (inactive) | > 100 µM (inactive) | > 100 | > 100 µM (inactive) | > 100 µM (inactive) | > 100 µM (inactive) | > 100 µM (inactive) | > 100 µM (inactive) | > 100 µM (inactive) | > 100 µM (inactive) | > 100 µM (inactive) | > 100 µM (inactive) | > 100 µM (inactive) | > 100 µM (inactive) | > 100 µM (inactive) | > 100 µM (inactive) | > 100 µM (inactive) |  |
| Nc1cccc(OCC2CCCN3CCCCC23)c1 (configuration not stated) | 21.4 µM (inactive) | 17.1 µM (inactive) | 17.6 µM (inactive) | 17.5 µM (inactive) | 17.5 | 16.2 µM (inactive) | 22 µM (inactive) | 17.2 µM (inactive) | 22.5 µM (inactive) | 19 µM (inactive) |  | 19.3 µM (inactive) | 20.1 µM (inactive) | 17.8 µM (inactive) | 19.1 µM (inactive) | 16.7 µM (inactive) | 17.9 µM (inactive) | 21.3 µM (inactive) | 13.7 µM (inactive) |  |
| Cc1cc(=O)nc(S(=O)(=O)NC(=S)Nc2ccc(Br)cc2)[nH]1 |  | > 100 µM (inactive) | 65.6 µM (inactive) | > 100 µM (inactive) | 75.9 | > 100 µM (inactive) |  | > 100 µM (inactive) | > 100 µM (inactive) | > 100 µM (inactive) | 18.6 µM (inactive) | > 100 µM (inactive) | > 100 µM (inactive) | > 100 µM (inactive) | > 100 µM (inactive) | > 100 µM (inactive) | > 100 µM (inactive) | > 100 µM (inactive) | > 100 µM (inactive) |  |
| COc1cc(/N=N/N(C)C)c(C(C)c2c3cc(OC)c(OC)cc3cc[n+]2C)cc1OC (configuration not stated) | > 100 µM (inactive) | 46.9 µM (inactive) | > 100 µM (inactive) | 62.7 µM (inactive) | > 100 | 49.7 µM (inactive) | 18.1 µM (inactive) | 26.3 µM (inactive) | 40.7 µM (inactive) | 30.8 µM (inactive) |  | > 100 µM (inactive) | 31.3 µM (inactive) | > 100 µM (inactive) |  | 40.5 µM (inactive) | 42.3 µM (inactive) | 85.7 µM (inactive) | 34.6 µM (inactive) |  |
| Cc1nn(C(=O)Cc2ccccc2)c2c1C(c1ccc(N(C)C)cc1)SC(=N)N2 (configuration not stated) | > 100 µM (inactive) | 51.5 µM (inactive) | > 100 µM (inactive) | > 100 µM (inactive) | > 100 | 38.3 µM (inactive) |  | > 100 µM (inactive) | > 100 µM (inactive) | > 100 µM (inactive) | > 100 µM (inactive) |  | > 100 µM (inactive) | 48.8 µM (inactive) | > 100 µM (inactive) | > 100 µM (inactive) | > 100 µM (inactive) | > 100 µM (inactive) | > 100 µM (inactive) | > 100 µM (inactive) |
| CCOC(=O)c1c(C)n(Cc2ccccc2)c2c1cc(O)c1[nH]c3c(c12)CCCC3 | 6.52 µM (inactive) | 11.7 µM (inactive) | 10.6 µM (inactive) | 12.6 µM (inactive) | 2.2 | 11.7 µM (inactive) | 3.33 µM (inactive) | 5.35 µM (inactive) | 11.9 µM (inactive) | 2.82 µM (inactive) | 1.16 µM (inactive) | 4.72 µM (inactive) | 1.81 µM (inactive) | 3.37 µM (inactive) | 5.18 µM (inactive) | 5.47 µM (inactive) | 3.03 µM (inactive) | 3.65 µM (inactive) |  |  |
| CN(C)CCCNc1cnc2cc3ccccc3cc2n1 | 26 µM (inactive) | 15.3 µM (inactive) | 22.4 µM (inactive) | 41 µM (inactive) | 18.4 | 26.2 µM (inactive) | 25.4 µM (inactive) | 16.4 µM (inactive) | 24.5 µM (inactive) | 33.3 µM (inactive) | 19.8 µM (inactive) |  | 23.8 µM (inactive) | 20.7 µM (inactive) | 22.6 µM (inactive) | 33.1 µM (inactive) | 36.1 µM (inactive) | 37.4 µM (inactive) | 17.2 µM (inactive) | 61.1 µM (inactive) |
| COC(=O)c1ccc(NCc2c(O)ccc(O)c2Br)cc1Cl | 54.7 µM (inactive) | 11.2 µM (inactive) | 15.8 µM (inactive) | 16.2 µM (inactive) | 16.6 |  | 1.78 µM (inactive) | 15.2 µM (inactive) | 13.6 µM (inactive) | 18.7 µM (inactive) | 0.329 µM (active) | 12.2 µM (inactive) | 17.4 µM (inactive) | 18.9 µM (inactive) | 16.8 µM (inactive) | 12.6 µM (inactive) | 25.9 µM (inactive) | 12.2 µM (inactive) | 19.1 µM (inactive) |  |
| CCc1nc2ccc(/N=N/N(C)C)cc2[nH]1 | > 100 µM (inactive) | > 100 µM (inactive) | > 100 µM (inactive) | > 100 µM (inactive) | > 100 | > 100 µM (inactive) | > 100 µM (inactive) | > 100 µM (inactive) | > 100 µM (inactive) | > 100 µM (inactive) | > 100 µM (inactive) | > 100 µM (inactive) | > 100 µM (inactive) |  | > 100 µM (inactive) | > 100 µM (inactive) | > 100 µM (inactive) | > 100 µM (inactive) | > 100 µM (inactive) |  |
| CC1N(C)C(=O)OC12CCN(CCCC(=O)c1ccc(F)cc1)CC2 (configuration not stated) | > 100 µM (inactive) | > 100 µM (inactive) | > 100 µM (inactive) | > 100 µM (inactive) | > 100 | > 100 µM (inactive) | > 100 µM (inactive) | > 100 µM (inactive) | > 100 µM (inactive) | > 100 µM (inactive) | > 100 µM (inactive) | > 100 µM (inactive) | > 100 µM (inactive) | > 100 µM (inactive) | > 100 µM (inactive) | > 100 µM (inactive) | > 100 µM (inactive) | > 100 µM (inactive) |  |  |
